The text below walks through data of publication PMC10383271.

What is called melting point is the temperature, or range, at which the solid turns liquid. For orientation: IC50 means the concentration that inhibits the measured activity by half. A high value points to weaker potency.

Data set [1] deals with normal human dermal fibroblasts (NHDF). Put plainly: MTT assay, viability of NHDF cell culture (ISO 10993 part 5). The format is cell-based. To be noted: NHDF cell cultures, 24 h incubation; for IC50: Homo sapiens, MTT, mean (± SD), n = 5. On the procedure:
The viability of the normal human dermal fibroblasts (NHDF) cell culture after 24 h incubation with the tested compounds 5a-c-7a-c was assessed by carrying out the MTT assay. This test was performed according to ISO 10993 part 5, Appendix C. For all tested compounds, the IC50 values were calculated using four-parameter logistics. Normal human dermal fibroblasts (NHDF) were purchased from the American Type Culture Collection (ATCC) for cytotoxicity evaluation of the tested compounds. The cells were grown in Dulbecco's Modified Eagle Medium DMEM with […] glucose without phenol red supplemented with 10% FBS and 2 mM L-glutamine, and 25 μg/mL gentamicin. The NHDF cells were cultured under standard conditions (5% CO2, 37 °C, and 95% humidity) with evaluation morphology and confluence at least twice a week. For the assay, the cells were used only in a logarithmic growth phase, and the TrypLE solution was used for 2 min at 37 °C to detach cells. Then, the TrypLE solution was inactivated by adding a culture medium, and the suspension of cells was collected into a tube and centrifuged for 5 min at 1000 rpm. Then, the supernatant was removed, fresh medium was added, and the pellet was resuspended and calculated using the […] chamber. The suspension of cells was prepared to allow seeding 10,000 cells/well density and incubated for 24 h to regenerate in CO2-incubator. The tested compounds were dissolved in DMSO to a final concentration of 10 mM and stored at -20 °C. Before use, the compound solution was kept at room temperature until thawing, and then, samples with 3 different concentrations of compounds were prepared (100 μM, 50 μM, and 10 μM) for each compound. The tested concentrations of compounds were prepared in a culture medium. […] The evaluation of the cytotoxicity of the newly synthesized compounds was carried out in accordance with the ISO 10,993 part V standard by performing the MTT test. After seeding at a density of 10,000 cells per well and adhering overnight, the NHDF cells were treated with the test compounds for 24 h in a CO2 incubator. The supernatant was then removed, the cells were washed with PBS, a 1mg/mL solution of MTT dissolved in MEM was added, and the cultures were re-incubated for 2 h in a CO2 incubator. The medium was then removed, and for a further 30 min, the formazan crystals were dissolved in 100 μL of isopropanol. The absorbance was measured with a Varioskan Go microplate reader at a wavelength of 570 nm. […] For enzyme assays, the IC50 was calculated according to the procedure provided by the kit manufacturer. The significance was set at p < 0.05. Based on the tests performed, the test power was calculated to be greater than 80%.
In general terms: Formazan colour is commonly taken as a measure of viable cells.

The compound `CCCCn1c(C)c2c(OCC(=O)N/N=C/c3ccccc3)nn(C)c(=O)c2c1C` [Compound 5a, N-[(Z/E)-benzylideneamino]-2-(6-butyl-3,5,7-trimethyl-4-oxo-pyrrolo[3,4-d]pyridazin-1-yl)oxy-acetamide] returned a melting point of 210 to 212 °C. Moreover, in data set [1], the half-inhibitory concentration (IC50) came to 85.6 ± 2.5 µM and the “Cell Morphology in Culture” value is listed as “Cells with an elongated shape characteristic of fibroblasts, the granularities were observed in 3–5 fields of view from 10 analyzed fields”.

As for `Cc1c2c(OCC(=O)N/N=C/c3ccccc3)nn(C)c(=O)c2c(C)n1-c1ccccc1` [Compound 5b, N-[(Z/E)-benzylideneamino]-2-(3,5,7-trimethyl-4-oxo-6-phenyl-pyrrolo[3,4-d]pyridazin-1-yl)oxy-acetamide], the melting point was in the range of 274 to 275 °C. In addition, in data set [1], half-maximal inhibition (IC50) was put at 486 ± 6.5 µM and the “Cell Morphology in Culture” value is given as “Normal morphology of fibroblasts-elongated cells, single granular cells in 1 of 10 assessed fields of view”.

`Cc1c2c(OCC(=O)N/N=C/c3ccccc3)nn(C)c(=O)c2c(C)n1-c1cccc(Cl)c1` [Compound 5c, N-[(Z/E)-benzylideneamino]-2-[6-(3-chlorophenyl)-3,5,7-trimethyl-4-oxo-pyrrolo[3,4-d]pyridazin-1-yl]oxyacetamide] registered a melting point of 273 to 275 °C. Further, in data set [1], the IC50 is 95.2 ± 1.5 µM and the “Cell Morphology in Culture” value is “Cells with an elongated shape characteristic of fibroblasts, the granularities were observed in 3–5 fields of view from 10 analyzed fields”.
